US20120196334A1, “LIGF-TYPE ENZYMES FOR BIOCONVERSION OF LIGNIN-DERIVED COMPOUNDS” (priority 2010, published 2012)

B1: ligE1: Novosphingobium aromaticivorans putative beta-etherase, glutathione S-transferase-like polypeptide, GenBank ABD26841.1, expressed in E. coli (protein)
chain: MAANNTITFYDLALSTGATISPFVWATKYALKHKGFDLDVVPGGFTGILERTGGKTERLPAIVDDGEFVLDSWGIVEYLDAKYPDRPVLIPHESVAATLKALDNWFWNAAVGPWMFCFCQDYRDLSLPQDHEYVTHSREKMLGRKLEEVQAGREERLPKISAALEPLRAALAQHQWLGGSSPNYADYRIMGGILFTASVCKTPVLANDDPLRDWIERCLDLYGGLGRHPGLFPLFGLEQREGDPDLFNRAAGQGGIYKRNTGPESTRAETQRITEGMKK
B2: LigF: Sphingomonas paucimobilis beta-etherase LigF, positive control polypeptide (protein)
chain: MTLKLYSFGPGANSLKPLATLYEKGLEFEQVFVDPSKFEQHSDWFKKINPRGQVPALWHDGKVVTESTVICEYLEDVFPESGNSLRPADPFKRAEMRVWTKWVDEYFCWCVSTIGWAFGIKAIAQKMSDEEFEEHINKNVPIPEQQLKWRRARNGFPQEMLDEEFRKVGVSVARLEETLSKQDYLVDTGYSLADICNFAIANGLQRPGGFFGDYVNQEKTPGLCAWLDRINARPAIKEMFEKSKREDLLKRQNEKVA
B3: LigF2: Novosphingobium aromaticivorans putative beta-etherase, glutathione S-transferase-like polypeptide LigF-2 (protein)
chain: MALKYYHAEPLANSLKSMVPLKEKGLAYESIYVDLHKFEQHQPWFTAINPEGQVPVLDHDGTIITHTTVINEYLEDAFPDAQPADAPLRPRDPVGAARMRYWNKFIDEHVMNYVSMHGWHRMVGVIARNIASGDFEKLLESIPLPDQRKKWATARSGFSEADLANATAKIEYALDKVEKQLGETKWLAGDTYTLADINFYSHCGAMVERMFPEMEVARRAPRLCEWRDRVAARPAVAEALKSEDRTAPGLRVWSGEVR
B4: ligE: Sphingomonas paucimobilis beta-etherase LigE, positive control polypeptide (protein)
chain: MARNNTITLYDLQLESGCTISPYVWRTKYALKHKGFDIDIVPGGFTGILERTGGRSERVPVIVDDGEWVLDSWVIAEYLDEKYPDRPMLFEGPTQKNLMKFLDNWLWSTAVGPWFRCYILDYHDLSLPQDRDYVRWSREQWFLGGQRLEDVQAGREDRLPLVPPTLEPFRRILAETKWLGGDQPNFADYSALAVFLWTASVARTPPLTEDDPLRDWLDRGFDLFDGLGRHPGMNPLFGLKLREGDPEPFVRQTGPAGAGGQALNKGPQTTKMPPRVAEKAD
B5: ABD26530.1: Novosphingobium aromaticivorans putative beta-etherase polypeptide LigF-1 (protein)
chain: MVIPLGEDNTIMLKLYSFGPAANSMKPLLTVFEKGLDVEKHRLDPAKFEHHTDWFKAINPRGQVPALVDGDKVVTESTVICEYLEDEYPTEVALRPADSFGKAQMRIWTKWVDEYFCWCVSTIGWHRYVGNMVKSLSDAEFEEKVKAIPVIEQQVKWRRAREGFPQDMLDEEMRKIAYSVRKLDDHLADHEWLVPGQYTLADICNFAIANGMQFGFAELVNKQDTPHLVRWIEQINERPAVKQMFAQVELEKLGPRE
B6: ABD27309.1: Novosphingobium aromaticivorans putative beta-etherase polypeptide LigF-3 (protein)
chain: MDEVSLYHWEPNANSGKPMLALMEKGVPFSSHYIDMLQFDQHKPEYLAINPQGTIPAMTHNGQVLTESTAIMEYVNDRFDGPDLMPADAQDRWRVRWWMKFMDQWLGPSFSMIGWSVFVGPMVRQRDPAELAAAIDRIPLPERRTAWRKAINGDFSESEMAESRRRVGLGIAKLEEELGKRPYVGSNQYSLADINIFNSTYSLPISQPDLAGKDRTPNIMRWLKRVYTREAVKKTWAMGKTDLAHRYGLIMAEIEG

System: Saccharomyces cerevisiae
Experiment: not given
Settings: stated as background; cited from earlier work

Question: For `COc1ccc(C=O)cc1OC` [Veratraldehyde], which “antifungal activities against the yeast Saccharomyces cerevisiae” value (shortened to “antifungal activities”) is on record?
Answer: significant antifungal activities

Question: Which “antifungal activities” value does the source give for `O=C(O)C=Cc1ccccc1` [cinnamic acid] here?
Answer: significant antifungal activities

Question: Which “antifungal activities” value does the source give for `O=C(O)/C=C/c1cccc(O)c1` [m-coumaric acid] here?
Answer: significant antifungal activities

Question: Which “antifungal activities” value does the source give for `O=C(O)/C=C/c1ccccc1O` [o-coumaric acid] here?
Answer: significant antifungal activities

Question: With `O=C(O)/C=C/c1ccc(O)cc1` [p-coumaric acid] as the molecule, how does the “antifungal activities” value read?
Answer: significant antifungal activities

Question: With `COc1cc(C(=O)O)ccc1O` [vanillic acid] as the molecule, how does the “antifungal activities” value read?
Answer: significant antifungal activities

Question: For `COc1cc(CCC(C)=O)ccc1O` [vanillylacetone], which “antifungal activities” value is on record?
Answer: significant antifungal activities

System: Escherichia coli
Experiment: not given
Settings: benzaldehyde derivatives; stated as demonstrated; cited from earlier work

Question: For `O=Cc1ccc(O)c(O)c1O` [2,3,4-trihydroxybenzaldehyde], which “antibacterial activity against Escherichia coli” value (“antibacterial activity” for short) is on record?
Answer: antibacterial activity

Question: With `O=Cc1cccc(O)c1O` [2,3-dihydroxybenzaldehyde] as the molecule, how does the “antibacterial activity” value read?
Answer: antibacterial activity

Question: With `O=Cc1c(O)cc(O)cc1O` [2,4,6-trihydroxybenzaldehyde] as the molecule, how does the “antibacterial activity” value read?
Answer: antibacterial activity

Question: Which “antibacterial activity” value does the source give for `O=Cc1ccc(O)cc1O` [2,4-dihydroxybenzaldehyde] here?
Answer: antibacterial activity

Question: For `O=Cc1cc(O)ccc1O` [2,5-dihydroxybenzaldehyde], which “antibacterial activity” value is on record?
Answer: antibacterial activity

Question: Which “antibacterial activity” value does the source give for `COc1cccc(C=O)c1O` [2-hydroxy-3-methoxybenzaldehyde] here?
Answer: antibacterial activity

Question: With `COc1ccc(O)c(C=O)c1` [2-hydroxy-5-methoxybenzaldehyde] as the molecule, how does the “antibacterial activity” value read?
Answer: antibacterial activity

Question: With `O=Cc1ccccc1O` [2-hydroxybenzaldehyde] as the molecule, how does the “antibacterial activity” value read?
Answer: antibacterial activity

Question: With `COc1cc(O)cc(OC)c1C=O` [4-hydroxy-2,6-dimethoxybenzaldehyde] as the molecule, how does the “antibacterial activity” value read?
Answer: antibacterial activity

Same assay, conditions: stated as known; cited from earlier work

Question: For `O=Cc1ccc(O)cc1` [4-hydroxybenzaldehyde], which “antimicrobial activity against Escherichia coli” value (“antimicrobial activity” for short) is on record?
Answer: antimicrobial activity

Question: With `O=Cc1ccc(CO)o1` [5-hydroxymethylfurfural] as the molecule, how does the “antimicrobial activity” value read?
Answer: antimicrobial activity

Question: With `O=Cc1ccco1` [furfural] as the molecule, how does the “antimicrobial activity” value read?
Answer: antimicrobial activity

Question: With `COc1cc(C=O)cc(OC)c1O` [syringaldehyde] as the molecule, how does the “antimicrobial activity” value read?
Answer: antimicrobial activity

Question: With `COc1cc(C=O)ccc1O` [vanillin] as the molecule, how does the “antimicrobial activity” value read?
Answer: antimicrobial activity

System: not listed separately
Experiment: in vitro biochemical assay for beta-etherase activity on fluorescent substrate MUAV (4MU formation)
Settings: E. coli cell extracts expressing the protein; 0.1 mM MUAV substrate
From the text: The model substrate synthesis 150 for use in the biochemical screening for selective activity can be outsourced through a contract research organization (CRO). The enzyme discovery effort can initially be focused on identifying potential beta-etherase candidate genes identified through bioinformatic methods. […] The fluorescent substrate α-O-(β-methylumbelliferyl) acetovanillone (MUAV), for example, can be used in in vitro assays to identify beta-etherase function (Acme Biosciences, Mt. View, Calif.). The formation of 4 methylumbelliferone (4MU) upon hydrolysis of the aryl ether bond can be monitored by fluorescence, for example, at λex=365 nm and λem=450 nm (or 460 nm).
The enzyme screening 155 is done to identify novel etherases 160. […] Expression of the beta-etherase genes can be done in 5 ml or 25 ml samples of the recombinant E. coli strains in LB medium using induction with IPTG. Following induction, and cell harvest, cell pellets can be lysed using the BPER (Invitrogen) cell lysis system. […] The formation of 4 methylumbelliferone (4MU) upon hydrolysis of the aryl ether bond in MUAV can be monitored by fluorescence at λex=365 nm and λem=460 nm, and can provide quantitative measurement of beta-etherase function. Cell extracts of E. coli transformed with the S. paucimobilis ligE and ligF genes can be the assay positive controls. Test or unknown samples can include, for example, E. coli strains expressing putative beta-etherase genes from N. aromaticovorans.
This example describes a method for gene expression in E. coli, as well as beta-etherase biochemical assays. Expression of known and putative beta-etherase genes was performed using 5 ml cultures of the recombinant E. coli strains described herein in Luria Broth medium by induction of gene expression using isopropylthiogalactoside (IPTG) to a final concentration of 0.1 mM. Following induction, and cell harvest, the cells were disrupted using either sonication or the BPER (Invitrogen) cell lysis system.
In vitro reactions were performed in a total volume of 200 ul and contained: 25 mM TrisHCl pH 7.5; 0.5 mM dithiothreitol; 1 mM glutathione; 0.05 mM or 0.1 mM MUAV; 10 ul of clarified cell extract used to initiate the reactions. Following incubation for 2.5 hours at room temperature, a 50 ul sample of the reactions was terminated using 150 uL of 300 mM glycine/NaOH buffer pH 9. The formation of 4 methylumbelliferone (4MU) upon hydrolysis of the aryl ether bond was monitored by the increase in fluorescence at λex=360 nm and λem=450 nm using a Spectramax UV/visible/fluorescent spectrophotometer.
The total protein concentrations of the cell lysates were determined using the BCA reagent system for protein quantification (Pierce).
Induction might be also performed using IPTG concentrations in the range of 0.01-1 mM. Cell disruption might be also performed using toluene permeabilization, French, pressure techniques, or using multiple freeze/thaw cycles in conjunction with lysozyme. Assay conditions might be varied to include TrisHCl at 10-150 mM concentrations and in the pH range of 6.5-8.5; 0-2 mM dithiothreitol; 0.05-2 mM glutathione; 0.01-5 mM MUAV substrate; 22-42° C. reaction temperatures. The biochemical assay might be performed as a fixed time point assay with reaction times ranging from 5 minutes-12 hours, or performed continuously without quenching with glycine/NaOH buffer to extract enzyme kinetic parameters.

Question: Which “total activity (beta-etherase)” value does the source give for B1 here?
Answer: 529 rfu/ug

Question: Which “total activity (beta-etherase)” value does the source give for B2 here?
Answer: 558 rfu/ug

Question: With B3 as the molecule, how does the “total activity (beta-etherase)” value read?
Answer: 1206 rfu/ug

Question: Which “total activity (beta-etherase)” value does the source give for B4 here?
Answer: 7 rfu/ug

Same assay, conditions: MUAV substrate; compared with S. paucimobilis LigF

Question: Which “efficiency relative to S. paucimobilis LigF protein” value does the source give for B3 here?
Answer: approximately 2 fold

Same assay, conditions: MUAV substrate; compared with S. paucimobilis ligE

Question: With B1 as the molecule, how does the “efficiency relative to S. paucimobilis ligE beta-etherase” value read?
Answer: approximately 75 fold

Same assay, conditions: recombinant polypeptide expressed in E. coli

Question: Which “beta-etherase activity on the MUAV substrate (in words)” value (“beta-etherase activity” for short) does the source give for B5 here?
Answer: beta-etherase activity

Question: With B6 as the molecule, how does the “beta-etherase activity” value read?
Answer: beta-etherase activity

Question: With B1 as the molecule, how does the “beta-etherase activity” value read?
Answer: beta-etherase activity

Question: Which “beta-etherase activity” value does the source give for B3 here?
Answer: beta-etherase activity
